Assay results taken from patent US8778412B2, “Methods for increasing the stabilization of hypoxia inducible factor-1 alpha” (Aerpio Therapeutics Inc., priority 2009, dated 2014).

Experiments:
[1] = Solubility of pharmaceutically acceptable salts in water; format: physicochemical; conditions: distilled deionized water, sonicated 20 min, under 25° C., HPLC
Experimental: The formulator can determine the solubility of the pharmaceutically acceptable salts of the disclosed inhibitors by any method desirable. The following is a non-limiting example of a procedure for evaluating the solubility of a salt of a disclosed inhibitor. A suspension of tert-butyl-{[1-(4-chlorobenzyl)-3-hydroxy-2-oxo-1,2-dihydropyridin-4-yl]methyl}-piperazine-1-carboxylate methanesulfonate (26.6 mg) in distilled deionized water (3.0 mL) is sonicated for 20 min with water bath temperature under 25° C. The suspension is filtered to remove any insoluble salt. The clear filtrate solution (200 μL) is diluted with distilled deionized water (800 μL) and subjected to HPLC analysis. The following are results for the pharmaceutically acceptable salts outlined in Table VII above.

[2] = target: HIFPH2 (EGLN1) (Homo sapiens (Human), UniProt Q9GZT9); experiment: EGLN-1 Activity Assay (MALDI-TOF MS); format: biochemical; conditions: recombinant human EGLN-1-179/426, HIF-1α peptide 556-574
Experimental: The enzyme, quantity predetermined to hydroxylate 20% of substrate in 20 minutes, is added to start the reaction. Where inhibitors are used, compounds are prepared in dimethyl sulfoxide at 10-fold final assay concentration. After 20 minutes at room temperature, the reaction is stopped by transferring 10 μL of reaction mixture to 50 μL of a mass spectrometry matrix solution (α-cyano-4-hydroxycinnamic acid, 5 mg/mL in 50% acetonitrile/0.1% TFA, 5 mM NH4PO4). Two microliters of the mixture is spotted onto a MALDI-TOF MS target plate for analysis with an Applied Biosystems (Foster City, Calif.) 4700 Proteomics Analyzer MALDI-TOF MS equipped with a Nd:YAG laser (355 nm, 3 ns pulse width, 200 Hz repetition rate). Hydroxylated peptide product is identified from substrate by the gain of 16 Da. Data defined as percent conversion of substrate to product is analyzed in GraphPad Prism 4 to calculate IC50 values.

[3] = system: phosphoglycerate kinase (PGK) expression; experiment: PGK expression in murine embryonic fibroblasts; format: cell-based; conditions: 1 μM, 10 μM, vs wild type control (FIG. 12)
Experimental: FIG. 11 depicts the up regulation of phosphoglycerate kinase (PGK) expression in wild type murine embryonic fibroblasts as a result of treatment with a compound disclosed in Table VIII at dosages of 1 μM (E), 10 μM (F), and 50 μM (G) vs. wild type control (H) and the lack of up regulation of PGK expression in HIF-1 knock out cells as a result of treatment with a compound disclosed in Table VIII at dosages of 1 μM (A), 10 μM (B), and 50 μM (C) and HIF-1 knock out control (D). Both cell types were treated for 7 hours.

Sequence of HIFPH2 (EGLN1) (Q9GZT9 179-426): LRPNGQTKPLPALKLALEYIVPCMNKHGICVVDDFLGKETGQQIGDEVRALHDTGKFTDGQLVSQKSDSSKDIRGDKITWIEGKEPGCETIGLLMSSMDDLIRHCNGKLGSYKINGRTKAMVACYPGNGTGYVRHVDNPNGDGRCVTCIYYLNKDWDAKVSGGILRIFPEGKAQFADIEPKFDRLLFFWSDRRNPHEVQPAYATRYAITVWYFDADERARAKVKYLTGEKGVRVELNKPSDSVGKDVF

Row | IC50 [2] | Structure (SMILES) | Solubility [1] | further results
1 | – | CC(C)(C)OC(=O)N1CCN(Cc2ccn(Cc3ccc(Cl)cc3)c(=O)c2O)CC1 [Compound A41] | ~1 µg/mL | –
2 | 17 µM | O=c1c(O)c(CN2CCN(Cc3ccccc3)CC2)ccn1Cc1ccccc1 [Compound B9, 1-benzyl-3-hydroxy-4-[(4-benzylpiperazin-1-yl)methyl]pyridin-2(1H)-one] | – | –
3 | 12 µM | O=c1c(O)c(CNCc2ccccc2)ccn1Cc1ccc(Cl)cc1 [Compound C1, 1-(4-chlorobenzyl)-3-hydroxy-4-[(4-benzylamino)methyl]pyridin-2(1H)-one] | – | –
4 | – | O=c1c(O)cccn1Cc1cccc(Cl)c1 [Compound F2, 1-(3-chlorobenzyl)-3-hydroxypyridin-2(1H)-one] | – | PGK expression in wild type murine embryonic fibroblasts [3]: up regulation
5 | – | CC(C)(C)OC(=O)N1CCN(Cc2ccn(Cc3ccc(Cl)cc3)c(=O)c2O)CC1.CS(=O)(=O)O [methanesulfonate, tert-butyl-{[1-(4-chlorobenzyl)-3-hydroxy-2-oxo-1,2-dihydropyridin-4-yl]methyl}-piperazine-1-carboxylate methanesulfonate] | 16600 µg/mL | –
